How the values were obtained:
[1] = test system: lymphocytic leukemia P388; experiment: Lymphocytic leukemia P388 test (intraperitoneal administration); type: in vivo, DBA/2 mice; settings: days 1, 5 and 9
Description: The animals used are DBA/2 mice all of one sex, weighing a minimum of 17 g. and all within a 3 gram weight range. There are 5 or 6 animals per test group. The tumor transplant is by intraperitoneal injection of 0.1 ml. of dilute ascitic fluid containing 10^6 cells of lymphocytic leukemia P388. The test compounds are administered intraperitoneally on days one, 5 and 9 (relative to tumor inoculation) at various doses. The animals are weighed and survivors are recorded on a regular basis for 30 days. The median survival time and the ratio of survival time for treated (T)/control (C) animals are calculated.

melanotic melanoma B16 = experiment: Melanotic Melanoma B16 test; type: in vivo, C57BC/6 mice; settings: days 1 through 9
Description: The animals used are C57BC/6 mice, all of the same sex, weighing a minimum of 17 g. and all within a 3-g. weight range. There are normally 10 animals per test group. A one-gram portion of melanotic melanoma B16 tumor is homogenized in 10 ml. of cold balanced salt solution and a 0.5-ml. aliquot of the homogenate is implanted intraperitoneally into each of the test mice. The test compounds are administered intraperitoneally on days one through 9 (relative to tumor inoculation) at various doses. The animals are weighed and survivors are recorded on a regular basis for 60 days. The median survival time and the ratio of survival time for treated (T)/control (C) animals are calculated. […] The criterion for efficacy is T/C×100≥125%.

[2] = Mus musculus, P388, ip, 12 mg./kg. i.p., efficacy ≥125%, read-out: T/C × 100
[3] = Mus musculus, P388, ip, 25 mg./kg. i.p., efficacy ≥125%, read-out: T/C × 100
[4] = Mus musculus, P388, ip, 50 mg./kg. i.p., efficacy ≥125%, read-out: T/C × 100
[5] = Mus musculus, P388, ip, 100 mg./kg. i.p., efficacy ≥125%, read-out: T/C × 100
[6] = Mus musculus, P388, ip, 200 mg./kg. i.p., efficacy ≥125%, read-out: T/C × 100
[7] = Mus musculus, ip, 50 mg./kg. i.p., efficacy ≥125%, read-out: T/C × 100
[8] = Mus musculus, ip, 12 mg./kg. i.p., efficacy ≥125%, read-out: T/C × 100
[9] = Mus musculus, ip, 25 mg./kg. i.p., efficacy ≥125%, read-out: T/C × 100
[10] = Mus musculus, P388, ip, 6.2 mg./kg. i.p., efficacy ≥125%, read-out: T/C × 100
[11] = Mus musculus, P388, ip, 12.5 mg./kg. i.p., efficacy ≥125%, read-out: T/C × 100
[12] = Mus musculus, ip, 6.2 mg./kg. i.p., efficacy ≥125%, read-out: T/C × 100
[13] = Mus musculus, ip, 12.5 mg./kg. i.p., efficacy ≥125%, read-out: T/C × 100

## CCN(CC)CCNc1ccc(NCCN(CC)CC)c2c1C(=O)c1c(O)ccc(O)c1C2=O [1,4-Bis[(2-diethylaminoethyl)amino]-5,8-dihydroxyanthraquinone]
[1]; 12 mg./kg. i.p.
  Median Survival Time: 12.0 days
[1]; 25 mg./kg. i.p.
  Median Survival Time: 16.0 days
[1]; 50 mg./kg. i.p.
  Median Survival Time: 15.0 days
[1]; 100 mg./kg. i.p.
  Median Survival Time: 18.0 days
[1]; 200 mg./kg. i.p.
  Median Survival Time: 20.0 days
[1]; [2]
  response vs control in vivo at 12 mg/kg: 126%
[1]; [3]
  response vs control in vivo at 25 mg/kg: 168%
[1]; [4]
  response vs control in vivo at 50 mg/kg: 158%
[1]; [5]
  response vs control in vivo at 100 mg/kg: 189%
[1]; [6]
  response vs control in vivo at 200 mg/kg: 210%
Melanotic melanoma B16; 50 mg./kg. i.p.
  Median Survival Time: 20.5 days
Melanotic melanoma B16; [7]
  response vs control in vivo at 50 mg/kg: 125%

## NCCCCNC1=C2C(=O)c3c(O)ccc(O)c3C(=O)C2=C(NCCCCN)CC1 [Leuco-1,4-bis(4-aminobutylamino)-5,8-dihydroxyanthraquinone]
[1]; 100 mg./kg. i.p.
  Median Survival Time: 14.0 days
[1]; 200 mg./kg. i.p.
  Median Survival Time: 17.0 days
[1]; 300 mg./kg. i.p.
  Median Survival Time: 18.0 days
[1]; 400 mg./kg. i.p.
  Median Survival Time: 20.0 days
[1]; [5]
  response vs control in vivo at 100 mg/kg: 133%
[1]; [6]
  response vs control in vivo at 200 mg/kg: 162%
[1]; Mus musculus, P388, ip, 300 mg./kg. i.p., efficacy ≥125%, read-out: T/C × 100
  response vs control in vivo at 300 mg/kg: 171%
[1]; Mus musculus, P388, ip, 400 mg./kg. i.p., efficacy ≥125%, read-out: T/C × 100
  response vs control in vivo at 400 mg/kg: 190%
Melanotic melanoma B16; 12 mg./kg. i.p.
  Median Survival Time: 16.0 days
Melanotic melanoma B16; 25 mg./kg. i.p.
  Median Survival Time: 18.5 days
Melanotic melanoma B16; 50 mg./kg. i.p.
  Median Survival Time: 20.0 days
Melanotic melanoma B16; 100 mg./kg. i.p.
  Median Survival Time: 21.0 days
Melanotic melanoma B16; [8]
  response vs control in vivo at 12 mg/kg: 94%
Melanotic melanoma B16; [9]
  response vs control in vivo at 25 mg/kg: 109%
Melanotic melanoma B16; [7]
  response vs control in vivo at 50 mg/kg: 118%
Melanotic melanoma B16; Mus musculus, ip, 100 mg./kg. i.p., efficacy ≥125%, read-out: T/C × 100
  response vs control in vivo at 100 mg/kg: 124%

## CN(C)CCCNc1ccc(NCCCN(C)C)c2c1C(=O)c1c(O)ccc(O)c1C2=O [1,4-Bis[(3-dimethylaminopropyl)amino]-5,8-dihydroxyanthraquinone]
[1]; 12 mg./kg. i.p.
  Median Survival Time: 15.0 days
[1]; 25 mg./kg. i.p.
  Median Survival Time: 15.5 days
[1]; 50 mg./kg. i.p.
  Median Survival Time: 15.5 days
[1]; [2]
  response vs control in vivo at 12 mg/kg: 125%
[1]; [3]
  response vs control in vivo at 25 mg/kg: 129%
[1]; [4]
  response vs control in vivo at 50 mg/kg: 129%
Melanotic melanoma B16; 25 mg./kg. i.p.
  Median Survival Time: 20.0 days
Melanotic melanoma B16; [9]
  response vs control in vivo at 25 mg/kg: 125%

## CNCCNCCNC1=C2C(=O)c3c(O)ccc(O)c3C(=O)C2=C(NCCNCCNC)CC1 [Leuco-1,4-bis[2-(2-methylaminoethylamino)ethylamino]-5,8-dihydroxyanthraquinone]
[1]; 6.2 mg./kg. i.p.
  Median Survival Time: 15.0 days
[1]; 12.5 mg./kg. i.p.
  Median Survival Time: 16.0 days
[1]; 25 mg./kg. i.p.
  Median Survival Time: 21.0 days
[1]; 50 mg./kg. i.p.
  Median Survival Time: 28.0 days
[1]; 100 mg./kg. i.p.
  Median Survival Time: 26.0 days
[1]; 200 mg./kg. i.p.
  Median Survival Time: 2.0 days
[1]; [10]
  response vs control in vivo at 6.2 mg/kg: 136%
[1]; [11]
  response vs control in vivo at 12.5 mg/kg: 145%
[1]; [3]
  response vs control in vivo at 25 mg/kg: 191%
[1]; [4]
  response vs control in vivo at 50 mg/kg: 255%
[1]; [5]
  response vs control in vivo at 100 mg/kg: 236%
[1]; [6]
  response vs control in vivo at 200 mg/kg: 18%
Melanotic melanoma B16; 6.2 mg./kg. i.p.
  Median Survival Time: 28.5 days
Melanotic melanoma B16; 12.5 mg./kg. i.p.
  Median Survival Time: 39.5 days
Melanotic melanoma B16; 25 mg./kg. i.p.
  Median Survival Time: 35.0 days
Melanotic melanoma B16; 50 mg./kg. i.p.
  Median Survival Time: 12.5 days
Melanotic melanoma B16; [12]
  response vs control in vivo at 6.2 mg/kg: 168%
Melanotic melanoma B16; [13]
  response vs control in vivo at 12.5 mg/kg: 232%
Melanotic melanoma B16; [9]
  response vs control in vivo at 25 mg/kg: 206%
Melanotic melanoma B16; [7]
  response vs control in vivo at 50 mg/kg: 73%

## NCCNCCNc1ccc(NCCNCCN)c2c1C(=O)c1c(O)ccc(O)c1C2=O [1,4-Bis[2-(2-aminoethylamino)ethylamino]-5,8-dihydroxyanthraquinone]
[1]; 25 mg./kg. i.p.
  Median Survival Time: 13.0 days
[1]; 50 mg./kg. i.p.
  Median Survival Time: 14.0 days
[1]; 100 mg./kg. i.p.
  Median Survival Time: 16.0 days
[1]; 200 mg./kg. i.p.
  Median Survival Time: 17.0 days
[1]; [3]
  response vs control in vivo at 25 mg/kg: 124%
[1]; [4]
  response vs control in vivo at 50 mg/kg: 133%
[1]; [5]
  response vs control in vivo at 100 mg/kg: 152%
[1]; [6]
  response vs control in vivo at 200 mg/kg: 162%
Melanotic melanoma B16; 6 mg./kg. i.p.
  Median Survival Time: 20.0 days
Melanotic melanoma B16; 12 mg./kg. i.p.
  Median Survival Time: 22.0 days
Melanotic melanoma B16; 25 mg./kg. i.p.
  Median Survival Time: 22.5 days
Melanotic melanoma B16; 50 mg./kg. i.p.
  Median Survival Time: 24.0 days
Melanotic melanoma B16; Mus musculus, ip, 6 mg./kg. i.p., efficacy ≥125%, read-out: T/C × 100
  response vs control in vivo at 6 mg/kg: 125%
Melanotic melanoma B16; [8]
  response vs control in vivo at 12 mg/kg: 138%
Melanotic melanoma B16; [9]
  response vs control in vivo at 25 mg/kg: 141%
Melanotic melanoma B16; [7]
  response vs control in vivo at 50 mg/kg: 150%

## CNCCNc1ccc(NCCNC)c2c1C(=O)c1c(O)ccc(O)c1C2=O.Cl.Cl [1,4-Bis[2-(methylamino)ethylamino]-5,8-dihydroxyanthraquinone dihydrochloride]
[1]; 0.04 mg./kg. i.p.
  Median Survival Time: 17.0 days
[1]; 0.09 mg./kg. i.p.
  Median Survival Time: 18.0 days
[1]; 0.19 mg./kg. i.p.
  Median Survival Time: 18.5 days
[1]; 0.39 mg./kg. i.p.
  Median Survival Time: 19.5 days
[1]; 0.78 mg./kg. i.p.
  Median Survival Time: 18.5 days
[1]; 1.5 mg./kg. i.p.
  Median Survival Time: 22.5 days
[1]; 3.1 mg./kg. i.p.
  Median Survival Time: 22.0 days
[1]; 6.2 mg./kg. i.p.
  Median Survival Time: 20.0 days
[1]; 12.5 mg./kg. i.p.
  Median Survival Time: 16.0 days
[1]; 25 mg./kg. i.p.
  Median Survival Time: 9.0 days
[1]; Mus musculus, P388, ip, 0.19 mg./kg. i.p., efficacy ≥125%, read-out: T/C × 100
  response vs control in vivo at 0.19 mg/kg: 176%
[1]; Mus musculus, P388, ip, 0.04 mg./kg. i.p., efficacy ≥125%, read-out: T/C × 100
  response vs control in vivo at 0.04 mg/kg: 162%
[1]; Mus musculus, P388, ip, 0.09 mg./kg. i.p., efficacy ≥125%, read-out: T/C × 100
  response vs control in vivo at 0.09 mg/kg: 171%
[1]; Mus musculus, P388, ip, 0.39 mg./kg. i.p., efficacy ≥125%, read-out: T/C × 100
  response vs control in vivo at 0.39 mg/kg: 186%
[1]; Mus musculus, P388, ip, 0.78 mg./kg. i.p., efficacy ≥125%, read-out: T/C × 100
  response vs control in vivo at 0.78 mg/kg: 176%
[1]; Mus musculus, P388, ip, 1.5 mg./kg. i.p., efficacy ≥125%, read-out: T/C × 100
  response vs control in vivo at 1.5 mg/kg: 214%
[1]; Mus musculus, P388, ip, 3.1 mg./kg. i.p., efficacy ≥125%, read-out: T/C × 100
  response vs control in vivo at 3.1 mg/kg: 210%
[1]; [10]
  response vs control in vivo at 6.2 mg/kg: 190%
[1]; [11]
  response vs control in vivo at 12.5 mg/kg: 152%
[1]; [3]
  response vs control in vivo at 25 mg/kg: 86%
Melanotic melanoma B16; 0.19 mg./kg. i.p.
  Median Survival Time: 29.5 days
Melanotic melanoma B16; 0.39 mg./kg. i.p.
  Median Survival Time: 25.0 days
Melanotic melanoma B16; 0.78 mg./kg. i.p.
  Median Survival Time: 35.0 days
Melanotic melanoma B16; 1.5 mg./kg. i.p.
  Median Survival Time: 33.0 days
Melanotic melanoma B16; 3.1 mg./kg. i.p.
  Median Survival Time: 49.0 days
Melanotic melanoma B16; 6.2 mg./kg. i.p.
  Median Survival Time: 26.5 days
Melanotic melanoma B16; 12.5 mg./kg. i.p.
  Median Survival Time: 11.5 days
Melanotic melanoma B16; Mus musculus, ip, 0.19 mg./kg. i.p., efficacy ≥125%, read-out: T/C × 100
  response vs control in vivo at 0.19 mg/kg: 151%
Melanotic melanoma B16; Mus musculus, ip, 0.39 mg./kg. i.p., efficacy ≥125%, read-out: T/C × 100
  response vs control in vivo at 0.39 mg/kg: 128%
Melanotic melanoma B16; Mus musculus, ip, 0.78 mg./kg. i.p., efficacy ≥125%, read-out: T/C × 100
  response vs control in vivo at 0.78 mg/kg: 179%
Melanotic melanoma B16; Mus musculus, ip, 1.5 mg./kg. i.p., efficacy ≥125%, read-out: T/C × 100
  response vs control in vivo at 1.5 mg/kg: 169%
Melanotic melanoma B16; Mus musculus, ip, 3.1 mg./kg. i.p., efficacy ≥125%, read-out: T/C × 100
  response vs control in vivo at 3.1 mg/kg: 251%
Melanotic melanoma B16; [12]
  response vs control in vivo at 6.2 mg/kg: 136%
Melanotic melanoma B16; [13]
  response vs control in vivo at 12.5 mg/kg: 59%
